According to patent US20250034216A1, “STEREOSELECTIVE COVALENT LIGANDS FOR ONCOGENIC AND IMMUNOLOGICAL PROTEINS” (The Scripps Research Institute, priority 2021, published 2025):

How the values were obtained:
Assay in all cases: IA-DTB cysteine engagement
Type in all cases: binding
LIMK1_C349 = target: T1, LIMK1_C349 (Homo sapiens, UniProt P53667); details: 22Rv1 cells, relative to DMSO; for % engagement LIMK1_349: 5 μM probe, 1 h (FIG. 5B); for % engagement LIMK1_C349: 20 μM probe, 1 h
T1 construct: endogenous in cells; host or cells: 22Rv1
T1 sequence (P53667 whole entry): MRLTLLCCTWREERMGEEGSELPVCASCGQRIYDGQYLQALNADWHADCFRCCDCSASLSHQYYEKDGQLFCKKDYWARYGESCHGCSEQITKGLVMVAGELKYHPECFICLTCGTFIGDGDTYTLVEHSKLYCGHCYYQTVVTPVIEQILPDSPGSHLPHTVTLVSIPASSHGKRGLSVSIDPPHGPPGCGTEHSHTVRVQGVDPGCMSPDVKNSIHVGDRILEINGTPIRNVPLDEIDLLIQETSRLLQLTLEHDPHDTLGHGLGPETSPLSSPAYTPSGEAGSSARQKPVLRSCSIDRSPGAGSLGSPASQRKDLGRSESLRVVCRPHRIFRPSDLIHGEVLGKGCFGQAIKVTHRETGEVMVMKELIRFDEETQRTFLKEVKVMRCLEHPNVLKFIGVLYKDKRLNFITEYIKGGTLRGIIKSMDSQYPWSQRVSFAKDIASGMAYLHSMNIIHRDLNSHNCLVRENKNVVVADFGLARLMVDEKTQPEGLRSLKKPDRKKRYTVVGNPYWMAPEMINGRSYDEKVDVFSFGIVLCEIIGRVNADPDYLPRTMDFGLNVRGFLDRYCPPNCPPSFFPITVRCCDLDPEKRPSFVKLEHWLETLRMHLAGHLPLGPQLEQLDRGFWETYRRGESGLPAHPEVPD
How it was run: (§1)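 Cells were treated in situ with electrophilic probes, then lysed, and the lysates (2 mg/mL protein) were labeled with IA-DTB for 1 h at ambient temperature. After reduction, alkylation and trypsin digestion, labeled peptides were streptavidin-enriched, TMT-labeled and fractionated. Engagement ratios are probe vs DMSO reporter intensities, averaged across replicates.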

SLC12A8_C660 = target: T2, SLC12A8_C660 (Homo sapiens, UniProt A0AV02); details: 22Rv1 cells, 20 μM probe, 1 h, relative to DMSO
T2 construct: endogenous in cells; host or cells: 22Rv1
T2 sequence (A0AV02 1-714): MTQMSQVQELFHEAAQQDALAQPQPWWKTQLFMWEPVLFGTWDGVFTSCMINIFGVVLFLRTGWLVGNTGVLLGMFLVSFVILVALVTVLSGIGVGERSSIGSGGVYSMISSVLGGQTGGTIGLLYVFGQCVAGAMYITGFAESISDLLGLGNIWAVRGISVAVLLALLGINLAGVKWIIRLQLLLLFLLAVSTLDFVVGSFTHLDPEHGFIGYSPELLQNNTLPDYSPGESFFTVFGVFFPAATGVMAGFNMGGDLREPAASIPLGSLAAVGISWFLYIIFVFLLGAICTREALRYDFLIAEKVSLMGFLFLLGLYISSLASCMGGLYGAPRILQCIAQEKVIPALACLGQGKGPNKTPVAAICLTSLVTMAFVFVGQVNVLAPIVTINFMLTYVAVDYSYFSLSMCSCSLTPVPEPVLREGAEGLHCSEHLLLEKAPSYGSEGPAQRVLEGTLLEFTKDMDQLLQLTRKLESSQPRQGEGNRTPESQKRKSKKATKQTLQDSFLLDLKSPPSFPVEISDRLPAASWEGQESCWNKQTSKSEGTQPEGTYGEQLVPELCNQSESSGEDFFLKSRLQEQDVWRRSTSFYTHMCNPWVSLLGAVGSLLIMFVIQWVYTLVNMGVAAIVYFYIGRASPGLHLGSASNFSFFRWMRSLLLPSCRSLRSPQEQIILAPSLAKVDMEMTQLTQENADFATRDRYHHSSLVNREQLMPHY
How it was run: as §1

SLC25A20_C89 = target: T3, SLC25A20_C89 (Homo sapiens, UniProt O43772); details: 22Rv1 cells, 20 μM probe, 1 h, relative to DMSO
T3 construct: endogenous in cells; host or cells: 22Rv1
T3 sequence (O43772 1-301): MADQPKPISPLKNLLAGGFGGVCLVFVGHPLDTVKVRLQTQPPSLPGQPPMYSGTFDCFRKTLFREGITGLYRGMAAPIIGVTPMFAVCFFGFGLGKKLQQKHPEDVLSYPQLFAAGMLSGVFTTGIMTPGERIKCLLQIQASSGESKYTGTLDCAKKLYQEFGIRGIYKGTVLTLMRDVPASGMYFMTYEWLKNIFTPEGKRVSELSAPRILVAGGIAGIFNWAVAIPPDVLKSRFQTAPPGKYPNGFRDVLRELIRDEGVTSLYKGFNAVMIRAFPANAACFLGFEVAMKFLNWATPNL
How it was run: as §1

SYNE2_C2993 = target: T4, SYNE2_C2993 (Homo sapiens, UniProt Q8WXH0); details: 22Rv1 cells, 20 μM probe, 1 h, relative to DMSO
T4 construct: endogenous in cells; host or cells: 22Rv1
How it was run: as §1

SMILES | % engagement LIMK1_349 (LIMK1_C349) | % engagement LIMK1_C349 (LIMK1_C349) | % engagement SLC12A8_C660 (SLC12A8_C660) | % engagement SLC25A20_C89 (SLC25A20_C89) | % engagement SYNE2_C2993 (SYNE2_C2993)
CC#CC(=O)N1C[C@H](c2ccc(Br)cc2)[C@@H]1C(=O)Nc1cccc2cccnc12 [MY-45B, (2R,3S)-3-(4-bromophenyl)-1-(but-2-ynoyl)-N-(quinolin-8-yl)azetidine-2-carboxamide] | −15.75% |  |  |  | 
C=CC(=O)N1C[C@H](c2ccc(Br)cc2)[C@H]1C(=O)Nc1cccc2cccnc12 [MY-3A, (2S,3S)-1-acryloyl-3-(4-bromophenyl)-N-(quinolin-8-yl)azetidine-2-carboxamide] |  | 21.5% | 41% | 45% | 26.5%
C=CC(=O)N1C[C@H](c2ccc(Br)cc2)[C@@H]1C(=O)Nc1cccc2cccnc12 [MY-1B, (2R,3S)-1-acryloyl-3-(4-bromophenyl)-N-(quinolin-8-yl)azetidine-2-carboxamide] | 90.88% | 93% | 61.5% | 94% | 76.5%
C=CC(=O)N1C[C@H](c2ccc(Br)cc2)[C@H]1C(=O)Nc1cccc2cccnc12 [MY-3B, (2S,3S)-1-acryloyl-3-(4-bromophenyl)-N-(quinolin-8-yl)azetidine-2-carboxamide] |  | 43.25% | 68.5% | 91% | 54.5%
C=CC(=O)N1C[C@@H](c2ccc(Br)cc2)[C@H]1C(=O)Nc1cccc2cccnc12 [MY-1A, (2S,3R)-1-acryloyl-3-(4-bromophenyl)-N-(quinolin-8-yl)azetidine-2-carboxamide] |  | 45.25% | 77.5% | 9.5% | −20%
